Data: patent publication US11439148B2, “Pyrimidine derivatives” (SYNGENTA PARTICIPATIONS AG, priority 2017, dated 2022)
Several values for one entry are separate records, joined by “and”; a condition that tells them apart may be missing. Identical values can stand only once.

What was measured:
Type in all cases: in vivo
Lolium perenne (LOLPE) = test: Adjuvant efficacy with pinoxaden, glasshouse spray test; settings: pinoxaden EC, mean over 7.5 and 15 g/ha and 3 replicates; adjuvant 0.2% v/v (none in No Adjuvant rows); % leaf area killed, 21 days after application; Tests 1-4 separate runs
Protocol: (§1) The efficacy of adjuvants 1-12 as adjuvants for the herbicide pinoxaden were tested in a glasshouse against four weed species, sown into standard soil in pots and cultivated under controlled conditions in a glasshouse (at 20/16° C. day/night; 16 hours light; 65% humidity). Pinoxaden was added to the spray tank as a standard EC (emulsifiable concentrate) formulation.
(§2) The spray tests were also carried out using pinoxaden in conjunction with adjuvants 1-12. The adjuvants were added to the spray solution at a rate of 0.2% v/v unless otherwise stated. All spray solutions also contained 10% w/w of iso-Propanol. The weed species and their BBCH growth stage at spraying were Avena fatua (AVEFA; growth stage 12), Lolium perenne (LOLPE; growth stage 13), Alopecurus myosuroides (ALOMY; growth stage 13), and Setaria viridis (SETVI; growth stage 13-14). Each spray test was replicated three times. The test plants were then grown in a glasshouse under controlled conditions (at 20/16° C. day/night; 16 hours light; 65% humidity) and watered twice a day. The efficacy of the herbicide was assessed visually and expressed as a percentage of the leaf area killed. Samples were assessed at a time period of 21 days following application. The results shown in Table 4 below are mean averages over the two rates of pinoxaden, and the three replicates.

Setaria viridis (SETVI) [1] = test: as above; settings: pinoxaden EC, mean over 7.5 and 15 g/ha and 3 replicates; adjuvant 0.2% v/v (none in No Adjuvant rows); % leaf area killed, 21 days after application; Tests 1-4 separate runs
Protocol: as §1, §2

[2] = tested on: Alopecurus myosuroides (ALOMY); test: as above; settings: pinoxaden EC, mean over 7.5 and 15 g/ha and 3 replicates; adjuvant 0.2% v/v (none in No Adjuvant rows); % leaf area killed, 21 days after application; Tests 1-4 separate runs
Protocol: as §1, §2

Avena fatua (AVEFA) = test: as above; settings: pinoxaden EC, mean over 7.5 and 15 g/ha and 3 replicates; adjuvant 0.2% v/v (none in No Adjuvant rows); % leaf area killed, 21 days after application; Tests 1-4 separate runs
Protocol: as §1, §2

[3] = tested on: weed species BRAPP, COMBE, DIGSA, POLCO; test: Adjuvant efficacy with mesotrione, glasshouse spray test, average over all species (BRAPP set); settings: mesotrione SC, mean over 30 and 60 g/ha; adjuvant 0.2% v/v (none in No Adjuvant rows); 21 days; Tests 1-3, species set with BRAPP (COMBE only in Test 2)
Protocol: (§3) The efficacy of adjuvants 1-12 as an adjuvant for the herbicide mesotrione was tested in a glasshouse against four weed species sown into standard soil in pots and cultivated under controlled conditions in a glasshouse (at 24/18° C. day/night; 16 hours light; 65% humidity). Mesotrione was added to the spray tank as a standard SC (suspension concentrate) formulation.
(§4) The spray tests were also carried out using mesotrione in conjunction with adjuvants 1-12. The adjuvants were added to the spray solution at a rate of 0.2% v/v unless otherwise stated. All spray solutions also contained 10% w/w of iso-Propanol. The weed species and their BBCH growth stage at spraying were Brachiaria platyphylla (BRAPP; growth stage 13-14) or Brachiaria plantaginea (BRAPL; growth stage 13-14), Commelina benghalensis (COMBE; growth stage 13), Digitaria sanguinalis (DIGSA; growth stage 14), and Polygonum convolvulus (POLCO; growth stage 13-14). Each spray test was replicated three times.
(§5) The test plants were then grown in a glasshouse under controlled conditions (at 24/18° C. day/night; 16 hours light; 65% humidity) and watered twice a day. The efficacy of the herbicide was assessed visually and expressed as a percentage of the leaf area killed. Samples were assessed at a time period of 21 days following application. The results shown in Table 3 below are mean averages over the two rates of mesotrione and the three replicates.

Setaria viridis (SETVI) [4] = test: Adjuvant efficacy with nicosulfuron, glasshouse spray test; settings: nicosulfuron WG, mean over 15 and 60 g/ha and 3 replicates; adjuvant 0.2% v/v (none in No Adjuvant rows); % leaf area killed, 21 days after application; Tests 1-4 separate runs
Protocol: as §3, with “adjuvants” for “an adjuvant”, “nicosulfuron were” for “mesotrione was”, “Nicosulfuron” for “Mesotrione”, “WG (water dispersible granule)” for “SC (suspension concentrate)”
(§6) The spray tests were also carried out using nicosulfuron in conjunction with adjuvants 1-12. The adjuvant was added to the spray solution at a rate of 0.2% v/v. All spray solutions also contained 12.5% v/v of iso-Propanol. The weed species and their BBCH growth stage at spraying were Abutilon theophrasti (ABUTH; growth stage 13), Chenopodium album (CHEAL; growth stage 13-14), Digitaria sanguinalis (DIGSA; growth stage 11), and Setaria viridis (SETVI; growth stage 13). Each spray test was replicated three times. The test plants were then grown in a glasshouse under controlled conditions (at 24/18° C. day/night; 16 hours light; 65% humidity) and watered twice a day. The efficacy of the herbicide was assessed visually and expressed as a percentage of the leaf area killed. Samples were assessed at a time period of 21 days following application. The results shown in Table 1 below are mean averages over the two rates of nicosulfuron, and the three replicates.

[5] = tested on: Digitaria sanguinalis (DIGSA); test: as above; settings: nicosulfuron WG, mean over 15 and 60 g/ha and 3 replicates; adjuvant 0.2% v/v (none in No Adjuvant rows); % leaf area killed, 21 days after application; Tests 1-4 separate runs
Protocol: as §3, with “adjuvants” for “an adjuvant”, “nicosulfuron were” for “mesotrione was”, “Nicosulfuron” for “Mesotrione”, “WG (water dispersible granule)” for “SC (suspension concentrate)”
as §6

[6] = tested on: Chenopodium album (CHEAL); test: as above; settings: nicosulfuron WG, mean over 15 and 60 g/ha and 3 replicates; adjuvant 0.2% v/v (none in No Adjuvant rows); % leaf area killed, 21 days after application; Tests 1-4 separate runs
Protocol: as §3, with “adjuvants” for “an adjuvant”, “nicosulfuron were” for “mesotrione was”, “Nicosulfuron” for “Mesotrione”, “WG (water dispersible granule)” for “SC (suspension concentrate)”
as §6

[7] = tested on: Abutilon theophrasti (ABUTH); test: as above; settings: nicosulfuron WG, mean over 15 and 60 g/ha and 3 replicates; adjuvant 0.2% v/v (none in No Adjuvant rows); % leaf area killed, 21 days after application; Tests 1-4 separate runs
Protocol: as §3, with “adjuvants” for “an adjuvant”, “nicosulfuron were” for “mesotrione was”, “Nicosulfuron” for “Mesotrione”, “WG (water dispersible granule)” for “SC (suspension concentrate)”
as §6

[8] = tested on: Brachiaria platyphylla (BRAPP); test: Adjuvant efficacy with mesotrione, glasshouse spray test; settings: mesotrione SC, mean over 30 and 60 g/ha and 3 replicates; adjuvant 0.2% v/v (none in No Adjuvant rows); % leaf area killed, 21 days after application; Tests 1-3 separate runs
Protocol: as §3, §4, §5

Septoria tritici [9] = test: Adjuvant efficacy with epoxiconazole on inoculated wheat plants; settings: epoxiconazole SC 1.5, 4, 8.5 and 20 mg/l, 4 replicates, adjuvant 0.1% v/v (none in No Adjuvant rows), sprayed 4 days after inoculation, percentage of leaf area infected 17-18 days after infection, Tests 1-3 separate runs
Protocol: Adjuvants 6, 7, 8 and 10 were tested as adjuvants for agrochemical compositions comprising epoxiconazole.
(§7) Two week old wheat plants were inoculated with the fungus Septoria tritici. […] All spray solutions also contained 10% v/v of iso-Propanol. The leaves of the plants were assessed visually 17-18 days after infection and the damage was expressed as the percentage of the leaf area infected.

Septoria tritici [10] = test: Adjuvant efficacy with isopyrazam on inoculated wheat plants; settings: isopyrazam SC, mean over 6.5, 16, 40 and 100 mg/l and 4 replicates, sprayed 4 days after inoculation, percentage of leaf area infected 17-18 days after infection, Tests 1-3 separate runs
Protocol: Adjuvants 6, 7, 8 and 10 were tested as adjuvants for agrochemical compositions comprising isopyrazam.
as §7, with “infected. Each spray test was replicated four times across the four application rates.” for “infected.”
The results shown in Table 6 below are mean averages over the four rates of isopyrazam and the four replicates.

Row | SMILES | Mean % Herbicidal Activity LOLPE (Lolium perenne (LOLPE)) | Mean % Herbicidal Activity SETVI (Setaria viridis (SETVI) [1]) | Mean % Herbicidal Activity ALOMY [2] | Mean % Herbicidal Activity AVEFA (Avena fatua (AVEFA)) | Mean % Herbicidal Activity Average over all Species [3] [%] | Mean % Herbicidal Activity SETVI (Setaria viridis (SETVI) [4]) | Mean % Herbicidal Activity DIGSA [5] | Mean % Herbicidal Activity CHEAL [6] | Mean % Herbicidal Activity ABUTH [7] | Mean % Herbicidal Activity BRAPP [8] [%] | Disease Damage Mean (Septoria tritici [9]) | Disease Damage Mean (Septoria tritici [10])
1 | CCCCCCCCCCCCOc1cc(OCC(C)OCC(C)OCC(C)OC)ncn1 (stereo not drawn) [Adjuvant 12] | 76% | 94% | 23% | 87% | 84 | 96% | 93% | 83% | 66% | 69 |  | 
2 | CCCCCCCCC=CCCCCCCCCOc1cc(OCCOCCOCCOCCOCCOCCOCCOCCOCCOCCOCCOCCOCCOCCOCCOCCOCCOCCOCCOCCOC)ncn1 [Adjuvant 11] | 15% | 84% | 11% | 41% | 78 | 94% | 88% | 82% | 64% | 58 |  | 
3 | CCCCCCCCCCCCCCCCOc1cc(OCCOCCOCCOCCOCCOCCOCCOCCOCCOCCOC)ncn1 [Adjuvant 8] | 87% and 42% and 73% | 94% and 88% and 89% | 2% and 15% and 22% | 94% and 78% and 84% |  | 96% (2×) and 95% | 87% and 93% and 89% | 85% (2×) and 83% | 53% and 66% and 74% |  | 36% | 20%
4 | CCCCCCCCCOc1cc(OCCOCCOCCOCCOCCOCCOCCOC)ncn1 [Adjuvant 4] | 30% | 82% | 18% | 78% | 73 | 94% | 70% | 78% | 48% | 43 |  | 
5 | CCCCCCOc1cc(OCCOCCOC)ncn1 [Adjuvant 1] | 41% | 82% | 20% | 78% | 72 | 93% | 88% | 84% | 64% | 53 |  | 
6 | CCCCCCCCCCCCOc1cc(OCCOCCOCCOCCOCCOCCOCCOC)ncn1 [Adjuvant 6] | 62% | 87% | 23% | 82% | 76 | 91% | 74% | 83% | 38% | 53 | 42% and 10% and 21% | 7% and 9% and 12%
7 | CCCCCCCCC=CCCCCCCCCOc1cc(OCCOCCOC)ncn1 [Adjuvant 9] | 40% | 91% | 17% | 83% | 81 | 95% | 88% | 82% | 57% | 69 |  | 
8 | CCCCCCCCCOc1cc(OCCOCCOCCOCCOCCOCCOCCOCCOCCOCCOC)ncn1 [Adjuvant 5] | 21% | 63% | 10% | 69% | 71 | 91% | 49% | 63% | 49% | 48 |  | 
9 | CCCCCCCCCCCCOc1cc(OCCOCCOCCOCCOCCOCCOCCOCCOCCOCCOC)ncn1 [Adjuvant 7] | 78% | 97% | 63% | 98% | 73 | 96% | 84% | 86% | 59% | 68 | 12% | 12%
10 | CCCCCCOc1cc(OCCOCCOCCOCCOCCOCCOCCOCCOCCOCCOCCOCCOCCOCCOCCOCCOCCOCCOCCOCCOC)ncn1 [Adjuvant 3] | 22% | 88% | 15% | 52% | 71 | 93% | 88% | 76% | 49% | 38 |  | 
11 | CCCCCCOc1cc(OCCOCCOCCOCCOCCOCCOCCOCCOCCOCCOC)ncn1 [Adjuvant 2] | 28% | 87% | 16% | 56% | 75 | 97% | 89% | 80% | 61% | 52 |  | 
